≈ marks a conversion by molar mass, not a printed value. Where two headings read alike, the source gives them in different places.
Key:
Assay type in all cases: physicochemical
[1] = Dynamic vapor sorption (DVS); details: for weight change upon desorption: DVS desorption after sorption to 95% RH; for XRPD of the post-DVS material (form change): after DVS sorption/desorption cycle; for hygroscopicity, weight gain from 5-95% RH: summary statement
Method: Dynamic vapor sorption (DVS) data are collected on a VTI SGA-100 Vapor Sorption Analyzer. NaCl and PVP are used as calibration standards. Samples are not dried prior to analysis. Sorption and desorption data are collected over a range from 5% to 95% relative humidity (RH) at 10% RH increments under a nitrogen purge. The equilibrium criterion used for analysis is less than 0.0100% weight change in 5 minutes with a maximum equilibration time of 3 hours. Data are not corrected for the initial moisture content of the samples.

[2] = Stressing at elevated relative humidity; details: ~97% RH for 7 days
Method: The kinetic and thermodynamic hygroscopicity of Form A is assessed by DVS and stressing at elevated RH, respectively.

[3] = Vacuum drying attempts of Form A
Method: Several attempts to dry Form A are tried. Rigorous conditions are initially selected due to the high temperature range at which the TGA weight loss is observed (above 90° C.). Drying under vacuum at 80° C. for 1 day results in brown solids stuck to the vial.
A drying attempt under milder conditions is attempted. The experiment begins by drying under vacuum at ambient temperature. […] Minor weight loss is noted after 6 hours at 63-65° C., so the sample is held in the vacuum oven at this temperature for 1 day, resulting in 11% gravimetric weight loss.

[4] = Hydrolysis in the solid state; details: reversion to N-[3,5-bis(trifluoromethyl)phenyl]-5-chloro-2-hydroxybenzamide
[5] = Slurry in water at room temperature, form by XRPD
Method: The slurry is repeated for 19 hours to gauge how quickly the conversion occurs and results again in Form N, indicating form conversion within 19 hours (starting material is the product from this example and from Example 21).

[6] = Solubility in water

With `O=C(Nc1cc(C(F)(F)F)cc(C(F)(F)F)c1)c1cc(Cl)ccc1OP(=O)(O)O` [Form N, 2-{[3,5-bis(trifluoromethyl)phenyl]carbamoyl}-4-chlorophenyl dihydrogen phosphate hydrate] the “weight change upon desorption” value [1] was “All of this weight is lost”, the “weight gain upon sorption from 5% to 95% relative humidity” value ([1]; DVS sorption, 5% to 95% RH, phosphate hydrate) was 3 weight % and the “weight loss upon equilibration to 5% relative humidity” value ([1]; DVS, initial equilibration to 5% RH, residual water likely) was 30%. The “XRPD of the post-DVS material (form change)” value (“XRPD … (form change)” below) ([1]; phosphate hydrate) was “no form change” and the “hygroscopicity, weight gain from 5-95% RH” value ([1]; DVS, phosphate hydrate) was roughly 3%.

With `O=C(Nc1cc(C(F)(F)F)cc(C(F)(F)F)c1)c1cc(Cl)ccc1OP(=O)(O)O` [Form A, 2-{[3,5-bis(trifluoromethyl)phenyl]carbamoyl}-4-chlorophenyl dihydrogen phosphate ethyl acetate solvate] the “weight loss upon desorption between 95% and 5% RH” value ([1]; DVS desorption, 95% to 5% RH) was 8.73%, the “moisture uptake between 5% and 95% RH” value ([1]; DVS sorption, 5% to 95% RH) was 6.07 wt % and the “weight gain 5%-75% RH” value ([1]; DVS sorption, 5%-75% RH) was 1.65%. For the same compound, the “weight gain 75%-95% RH” value ([1]; DVS sorption, 75%-95% RH) was 4.42%, the “weight loss upon equilibration at 5% RH” value ([1]; DVS, initial equilibration at 5% RH) was 0.76 wt % and the “XRPD … (form change)” value [1] was “change to a disordered unknown material”. The “hygroscopicity, weight gain from 5-95% RH” value ([1]; DVS) was roughly 6%, the “form after stressing at elevated relative humidity” value [2] was “form change to a mixture of materials with a minor Form N (hydrate) component” and the “gravimetric weight loss on drying” value ([3]; under vacuum at 80° C. for 1 day) was 30%. The “gravimetric weight loss on drying” value ([3]; vacuum oven at 63-65° C. for 1 day) was 11% and the “outcome of vacuum drying at elevated temperature” value ([3]; vacuum, elevated temperature) was “decomposition and collapse of the crystalline structure”.

With `NCCO.NCCO.O=C(Nc1cc(C(F)(F)F)cc(C(F)(F)F)c1)c1cc(Cl)ccc1OP(=O)(O)O` [bis ethanolamine salt, 2-((3,5-bis(trifluoromethyl)phenyl)carbamoyl)-4-chlorophenyl phosphate bis ethanolamine salt] the “hydrolysis in the solid state” value [4] was 1 % per day.

In the case of `O=C(Nc1cc(C(F)(F)F)cc(C(F)(F)F)c1)c1cc(Cl)ccc1OP(=O)(O)O` [Form B, 2-{[3,5-bis(trifluoromethyl)phenyl]carbamoyl}-4-chlorophenyl dihydrogen phosphate], the “weight change upon desorption” value [1] is reported as “All of this weight is lost”, the “weight gain upon sorption from 5% to 95% relative humidity” value ([1]; DVS sorption, 5% to 95% RH) is reported as 0.6 weight % and the “weight loss at 5% relative humidity” value ([1]; DVS, 5% RH) is reported as 0.04 weight %. For the same compound, the “XRPD … (form change)” value [1] was “no form change”, the “hygroscopicity, weight gain from 5-95% RH” value ([1]; DVS) was roughly 0.6% and the “form after stressing at elevated relative humidity” value [2] was “partial conversion to Form N”. The “time for form conversion to Form N in water slurry” value [5] was no more than 19 h and the “form after slurrying with water” value ([5]; 7 days, vacuum filtered) was “converts to Form N”.

`O=C(Nc1cc(C(F)(F)F)cc(C(F)(F)F)c1)c1cc(Cl)ccc1O` [N-[3,5-bis(trifluoromethyl)phenyl]-5-chloro-2-hydroxybenzamide] showed a solubility ([6]; water, read-out: solubility in water) of 0.003 mg/mL (≈ 7.82 µM).

With `O=C(Nc1cc(C(F)(F)F)cc(C(F)(F)F)c1)c1cc(Cl)ccc1OP(=O)([O-])[O-].[Na+].[Na+]` [bis sodium salt, 2-((3,5-bis(trifluoromethyl)phenyl)carbamoyl)-4-chlorophenyl phosphate bis sodium salt] the solubility ([6]; pH 8.5 water, pH 8.5, aqueous buffer, read-out: solubility in pH 8.5 water) was 20 mg/mL and the “hydrolysis in the solid state” value [4] was 1 % per day.

In the case of `O=C(Nc1cc(C(F)(F)F)cc(C(F)(F)F)c1)c1cc(Cl)ccc1OP(=O)([O-])O.[Na+]` [mono sodium salt, 2-((3,5-bis(trifluoromethyl)phenyl)carbamoyl)-4-chlorophenyl hydrogen phosphate mono sodium salt], the “hydrolysis in the solid state” value [4] is reported as 1 % per day.

Source: patent publication US12091431B2, “Crystals” (AEROMICS, INC., priority 2016, dated 2024)
